Test results reported in patent US9999619B2, “Piperidin-4-yl azetidine derivatives as JAK1 inhibitors” (Incyte Corporation, priority 2010, dated 2018).

Legend:
Type in all cases: biochemical
[1] = target: Jak2 (a.a. 828-1132) (Homo sapiens (Human), UniProt O60674); experiment: In vitro JAK kinase assay (HTRF, phosphorylation of a biotinylated peptide), JAK2; conditions: measured at 1 mM ATP
Summary of the method: (§1)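 Phosphorylation of a biotinylated peptide by purified His-tagged JAK catalytic domains (insect-cell baculovirus expression) ran 1 hr at room temperature. After stopping with EDTA, Eu-Py20 and SA-APC were bound for 40 minutes and HTRF measured.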

[2] = target: human JAK1 (a.a. 837-1142) (Homo sapiens, UniProt P23458); experiment: In vitro JAK kinase assay (HTRF, phosphorylation of a biotinylated peptide), JAK1; conditions: measured at 1 mM ATP
Summary of the method: as §1

[3] = target: human JAK1 (a.a. 837-1142); experiment: as above; conditions: ratio of JAK2 IC50 to JAK1 IC50, measured at 1 mM ATP
Summary of the method: as §1

Chain of Jak2 (a.a. 828-1132) (O60674 828-1132): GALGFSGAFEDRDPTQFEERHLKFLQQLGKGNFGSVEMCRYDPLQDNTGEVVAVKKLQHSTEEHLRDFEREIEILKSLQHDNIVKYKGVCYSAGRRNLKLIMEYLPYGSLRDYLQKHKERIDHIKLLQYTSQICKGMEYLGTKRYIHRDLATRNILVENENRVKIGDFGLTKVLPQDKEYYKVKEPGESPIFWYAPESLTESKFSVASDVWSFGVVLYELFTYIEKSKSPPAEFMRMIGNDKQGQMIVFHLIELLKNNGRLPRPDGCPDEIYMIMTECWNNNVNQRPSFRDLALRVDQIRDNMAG

| SMILES | IC50 [1] | IC50 [2] | IC50 Ratio JAK2/JAK1 [3] |
| --- | --- | --- | --- |
| N#CCC1(n2ccc(-c3ncnc4[nH]ccc34)c2)CN(C2CCN(C(=O)Nc3ccc(Cl)cc3C#N)CC2)C1 [Example 293, 4-{3-(cyanomethyl)-3-[3-(7H-pyrrolo[2,3-d]pyrimidin-4-yl)-1H-pyrrol-1-yl]azetidin-1-yl}-N-(4-chloro-2-cyanophenyl)piperidine-1-carboxamide] | 10 to 50 nM | ≤ 5 nM | 3.4 |
| N#CCC1(n2cc(-c3ncnc4[nH]ccc34)cn2)CN(C2CCN(C(=O)c3ccc(-c4nc5ccccc5o4)cc3)CC2)C1 [Example 136, {1-{1-[4-(1,3-benzoxazol-2-yl)benzoyl]piperidin-4-yl}-3-[4-(7H-pyrrolo[2,3-d]pyrimidin-4-yl)-1H-pyrazol-1-yl]azetidin-3-yl}acetonitrile] | > 100 nM | 5 to 20 nM | 5.6 |
| COc1ncccc1NC(=O)N1CCC(N2CC(CC#N)(n3ccc(-c4ncnc5[nH]ccc45)c3)C2)CC1 [Example 284, 4-{3-(cyanomethyl)-3-[3-(7H-pyrrolo[2,3-d]pyrimidin-4-yl)-1H-pyrrol-1-yl]azetidin-1-yl}-N-(2-methoxypyridin-3-yl)piperidine-1-carboxamide] | 10 to 50 nM | ≤ 5 nM | 5.8 |
| N#CCC1(n2cc(-c3c(C#N)cnc4[nH]ccc34)cn2)CN(C2CCN(C(=O)c3cc(F)cc(C#N)c3)CC2)C1 [Example 333, 4-{1-[1-[1-(3-cyano-5-fluorobenzoyl)piperidin-4-yl]-3-(cyanomethyl)azetidin-3-yl]-1H-pyrazol-4-yl}-1H-pyrrolo[2,3-b]pyridine-5-carbonitrile] | 50 to 100 nM | 5 to 20 nM | 8.8 |
| N#CCC1(n2cc(-c3ncnc4[nH]ccc34)cn2)CN(C2CCN(C(=O)OCC3CC3)CC2)C1 [Example 391, cyclopropylmethyl 4-{3-(cyanomethyl)-3-[4-(7H-pyrrolo[2,3-d]pyrimidin-4-yl)-1H-pyrazol-1-yl]azetidin-1-yl}piperidine-1-carboxylate] | 50 to 100 nM | 5 to 20 nM | 10.6 |
| N#CCC1(n2ccc(-c3ncnc4[nH]ccc34)c2)CN(C2CCN(C(=O)Nc3ncccc3F)CC2)C1 [Example 292, 4-{3-(cyanomethyl)-3-[3-(7H-pyrrolo[2,3-d]pyrimidin-4-yl)-1H-pyrrol-1-yl]azetidin-1-yl}-N-(3-fluoropyridin-2-yl)piperidine-1-carboxamide] | 10 to 50 nM | ≤ 5 nM | 9.1 |
| N#CCC1(n2cc(-c3ncnc4[nH]ccc34)cn2)CN(C2CCN(C(=O)c3ccnc(C(F)(F)F)c3)CC2)C1 [Example 57, (3-[4-(7H-pyrrolo[2,3-d]pyrimidin-4-yl)-1H-pyrazol-1-yl]-1-{1-[2-(trifluoromethyl)isonicotinoyl]piperidin-4-yl}azetidin-3-yl)acetonitrile] | > 100 nM | > 30 nM | 3.3 |
| N#CCC1(n2cc(-c3ncnc4[nH]ccc34)cn2)CN(C2CCN(C(=O)c3ccc(O)c(F)c3)CC2)C1 [Example 6, {1-[1-(3-fluoro-4-hydroxybenzoyl)piperidin-4-yl]-3-[4-(7H-pyrrolo[2,3-d]pyrimidin-4-yl)-1H-pyrazol-1-yl]azetidin-3-yl}acetonitrile] | 10 to 50 nM | ≤ 5 nM | 14.3 |
| N#CCC1(n2cc(-c3ncnc4[nH]ccc34)cn2)CN(C2CCN(C(=O)c3c(F)cncc3F)CC2)C1 [Example 61, {1-[1-(3,5-difluoroisonicotinoyl)piperidin-4-yl]-3-[4-(7H-pyrrolo[2,3-d]pyrimidin-4-yl)-1H-pyrazol-1-yl]azetidin-3-yl}acetonitrile] | 10 to 50 nM | 5 to 20 nM | 4.2 |
| N#CCC1(n2cc(-c3ncnc4[nH]ccc34)cn2)CN(C2CCN(Cc3cc(C(F)(F)F)ccc3Cl)CC2)C1 [Example 211, {1-{1-[2-chloro-5-(trifluoromethyl)benzyl]piperidin-4-yl}-3-[4-(7H-pyrrolo[2,3-d]pyrimidin-4-yl)-1H-pyrazol-1-yl]azetidin-3-yl}acetonitrile] | 10 to 50 nM | 5 to 20 nM | 5.0 |
| N#CCC1(n2cc(-c3ncnc4[nH]ccc34)cn2)CN(C2CCN(C(=O)c3cccc(F)c3)CC2)C1 [Example 25, {1-[1-(3-fluorobenzoyl)piperidin-4-yl]-3-[4-(7H-pyrrolo[2,3-d]pyrimidin-4-yl)-1H-pyrazol-1-yl]azetidin-3-yl}acetonitrile] | 10 to 50 nM | ≤ 5 nM | 5.8 |
| COc1ccc(OC)c(NC(=O)N2CCC(N3CC(CC#N)(n4cc(-c5ncnc6[nH]ccc56)cn4)C3)CC2)c1 [Example 186, 4-{3-(cyanomethyl)-3-[4-(7H-pyrrolo[2,3-d]pyrimidin-4-yl)-1H-pyrazol-1-yl]azetidin-1-yl}-N-(2,5-dimethoxyphenyl)piperidine-1-carboxamide] | 10 to 50 nM | ≤ 5 nM | 5.5 |
| N#CCC1(n2cc(-c3ncnc4[nH]ccc34)cn2)CN(C2CCN(Cc3cccc(C(F)(F)F)c3F)CC2)C1 [Example 212, {1-{-[2-fluoro-3-(trifluoromethyl)benzyl]piperidin-4-yl}-3-[4-(7H-pyrrolo[2,3-d]pyrimidin-4-yl)-1H-pyrazol-1-yl]azetidin-3-yl}acetonitrile] | 50 to 100 nM | 5 to 20 nM | 7.8 |
| N#CCC1(n2cc(-c3ncnc4[nH]ccc34)cn2)CN(C2CCN(C(=O)c3ccc(F)c(O)c3)CC2)C1 [Example 58, {1-[1-(4-fluoro-3-hydroxybenzoyl)piperidin-4-yl]-3-[4-(7H-pyrrolo[2,3-d]pyrimidin-4-yl)-1H-pyrazol-1-yl]azetidin-3-yl}acetonitrile] | 10 to 50 nM | ≤ 5 nM | 5.0 |

Continued, values first:

| IC50 [1] | IC50 [2] | IC50 Ratio JAK2/JAK1 [3] | SMILES |
| --- | --- | --- | --- |
| ≤ 10 nM | ≤ 5 nM | 4.2 | COc1ccsc1C(=O)N1CCC(N2CC(CC#N)(n3cc(-c4ncnc5[nH]ccc45)cn3)C2)CC1 [Example 81, {1-{1-[(3-methoxy-2-thienyl)carbonyl]piperidin-4-yl}-3-[4-(7H-pyrrolo[2,3-d]pyrimidin-4-yl)-1H-pyrazol-1-yl]azetidin-3-yl}acetonitrile] |
| 10 to 50 nM | ≤ 5 nM | 20 | N#CCC1(n2cc(-c3ncnc4[nH]ccc34)cn2)CN(C2CCN(C(=O)c3cc(CO)nc(C(F)(F)F)n3)CC2)C1 [Example 381, {1-(1-{[6-(hydroxymethyl)-2-(trifluoromethyl)pyrimidin-4-yl]carbonyl}piperidin-4-yl)-3-[4-(7H-pyrrolo[2,3-d]pyrimidin-4-yl)-1H-pyrazol-1-yl]azetidin-3-yl}acetonitrile] |
| ≤ 10 nM | ≤ 5 nM | 7.1 | N#CCC1(n2cc(-c3ncnc4[nH]ccc34)cn2)CN(C2CCN(C(=O)c3ccc(-c4cccc5cnccc45)c(F)c3)CC2)C1 [Example 130, {1-[1-(3-fluoro-4-isoquinolin-5-ylbenzoyl)piperidin-4-yl]-3-[4-(7H-pyrrolo[2,3-d]pyrimidin-4-yl)-1H-pyrazol-1-yl]azetidin-3-yl}acetonitrile] |
| 10 to 50 nM | 5 to 20 nM | 4.4 | N#CCC1(n2cc(-c3ncnc4[nH]ccc34)cn2)CN(C2CCN(C(=O)c3ccccc3C#N)CC2)C1 [Example 10, 2-[(4-{3-(cyanomethyl)-3-[4-(7H-pyrrolo[2,3-d]pyrimidin-4-yl)-1H-pyrazol-1-yl]azetidin-1-yl}piperidin-1-yl)carbonyl]benzonitrile] |
| 10 to 50 nM | ≤ 5 nM | 6.7 | Cc1ccc(NC(=O)N2CCC(N3CC(CC#N)(n4cc(-c5ncnc6[nH]ccc56)cn4)C3)CC2)c(F)n1 [Example 200, 4-{3-(cyanomethyl)-3-[4-(7H-pyrrolo[2,3-d]pyrimidin-4-yl)-1H-pyrazol-1-yl]azetidin-1-yl}-N-(2-fluoro-6-methylpyridin-3-yl)piperidine-1-carboxamide] |
| 10 to 50 nM | 5 to 20 nM | 7.6 | CCOC(=O)N1CCC(N2CC(CC#N)(n3cc(-c4ncnc5[nH]ccc45)cn3)C2)CC1 [Example 388, ethyl 4-{3-(cyanomethyl)-3-[4-(7H-pyrrolo[2,3-d]pyrimidin-4-yl)-1H-pyrazol-1-yl]azetidin-1-yl}piperidine-1-carboxylate] |
| ≤ 10 nM | ≤ 5 nM | 10.0 | N#CCC1(n2cc(-c3ccnc4[nH]ccc34)cn2)CN(C2CCN(C(=O)c3ccc(O)cc3F)CC2)C1 [Example 297, {1-[1-(2-fluoro-4-hydroxybenzoyl)piperidin-4-yl]-3-[4-(1H-pyrrolo[2,3-b]pyridin-4-yl)-1H-pyrazol-1-yl]azetidin-3-yl}acetonitrile] |
| ≤ 10 nM | ≤ 5 nM | 7.5 | N#CCC1(n2ccc(-c3ncnc4[nH]ccc34)c2)CN(C2CCN(C(=O)c3ccc(F)c(F)c3F)CC2)C1 [Example 280, {3-[3-(7H-pyrrolo[2,3-d]pyrimidin-4-yl)-1H-pyrrol-1-yl]-1-[1-(2,3,4-trifluorobenzoyl)piperidin-4-yl]azetidin-3-yl}acetonitrile] |
| ≤ 10 nM | ≤ 5 nM | 5.0 | Cn1cnc(S(=O)(=O)N2CCC(N3CC(CC#N)(n4cc(-c5ncnc6[nH]ccc56)cn4)C3)CC2)c1 [Example 258, {1-{1-[(1-methyl-1H-imidazol-4-yl)sulfonyl]piperidin-4-yl}-3-[4-(7H-pyrrolo[2,3-d]pyrimidin-4-yl)-1H-pyrazol-1-yl]azetidin-3-yl}acetonitrile] |
